This note sets out measurements from paper PMC12671775 (PLOS Genetics, 2025).

Series [1] addresses T1, ChuaHNL (hydroxynitrile lyase, CHUA_005138) (Chamberlinius hualienensis, UniProt A0A0H5BR52).
T1 construct: N-terminal His-tagged, produced in Pichia pastoris
It counts as biochemical.

In a further series the test system is O=Cc1ccccc1. Put plainly: purified protein.

The Km is the substrate concentration at which the rate is half of its maximum. `N#CC(O)c1ccccc1` (racemic) [MAN, (R,S)-mandelonitrile]: the Km in series [1] was 13.7 ± 2.35 mM.
For “ChuaHNL (hydroxynitrile lyase, CHUA_005138) (Chamberlinius hualienensis)”, the Km in the series with O=Cc1ccccc1 was 4.31 ± 0.771 mM.
